Consider 15 compounds from patent US20260226067A1, “MODULATORS OF TRPML, THEIR COMPOSITIONS AND METHODS OF USE” (Caraway Therapuetics, Inc., priority 2023, published 2026).

Molecules are shown by their SMILES.

What all share (assay type): cell-based
In one assay the target is human TRPML1 (Homo sapiens, UniProt Q9GZU1). The assay can be described thus: Fluorescent TRPML1 assay (Fluo4-AM calcium fluorescence). The following applies: HEK-293 Trex cells expressing hTRPML1, Fluo4-AM fluorescence; read-out: Human TRPML 1 EC50. The method, then: (§1) HEK-293 Trex cells were stably transfected with a construct consisting of the human coding sequence for TRPML1 cloned into the tet-inducible plasmid pCDNA5 T/O. Mutations were introduced into the TRPML1 sequence to facilitate expression on the cell surface (Silvia Vergarajauregui, Rosa Puertollano Traffic. 2006 March; 7(3): 337-353). Briefly, the cells are cultured in 150 mm round tissue culture dishes containing 20 mL of media. The day before the assay the cells are rinsed with DPBS-Ca-Mg and then treated briefly with Trypsin-EDTA. The Trypsin-EDTA is diluted with growth media, and cells are counted. 38×10^6 cells are re-plated into 150 mm round tissue culture dishes in media containing 0.5 ug/mL doxycycline to induce expression of hTRPML1.
human TRPML1, sequence (Q9GZU1 whole entry L15A/L16A/L577A/L578A, form open): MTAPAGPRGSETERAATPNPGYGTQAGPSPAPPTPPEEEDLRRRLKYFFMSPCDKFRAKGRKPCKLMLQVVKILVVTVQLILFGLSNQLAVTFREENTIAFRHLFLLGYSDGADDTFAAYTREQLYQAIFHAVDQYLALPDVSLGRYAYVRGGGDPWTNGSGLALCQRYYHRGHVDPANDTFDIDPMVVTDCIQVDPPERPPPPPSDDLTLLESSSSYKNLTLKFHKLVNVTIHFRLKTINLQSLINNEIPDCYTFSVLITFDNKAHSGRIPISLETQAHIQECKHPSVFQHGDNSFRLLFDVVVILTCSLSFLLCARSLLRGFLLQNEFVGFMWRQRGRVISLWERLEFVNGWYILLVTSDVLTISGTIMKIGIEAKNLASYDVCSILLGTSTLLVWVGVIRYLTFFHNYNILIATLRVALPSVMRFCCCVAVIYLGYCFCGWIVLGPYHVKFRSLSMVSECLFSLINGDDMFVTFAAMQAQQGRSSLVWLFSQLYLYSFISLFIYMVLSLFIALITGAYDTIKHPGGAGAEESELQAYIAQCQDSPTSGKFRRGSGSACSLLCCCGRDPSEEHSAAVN
(§2) The day of the experiment cells are lifted from the plates as above and collected by centrifugation. The cells are then suspended in dye loading buffer consisting of Ringer's solution supplemented with 0.1% Pluronic Acid and 1 micromolar Fluo4-AM dye. Cells are loaded for ~60 minutes in the dark with occasional mixing. The cells are collected by centrifugation, the loading media aspirated, and the cells resuspended in 25 mL Ringer's solution and incubated ~60 minutes in the dark. The cells are again collected by centrifugation, rinsed in Ringer's Solution and resuspended to 0.2×10^6 cells/mL in modified Ringer's solution containing 10 mM calcium.
(§3) Compounds are dissolved to a concentration of 10 millimolar with DMSO. Compound plates are created by dispensing compounds into 384 well black wall clear bottom plates (Greiner 781091). Positive and negative controls are included on each plate. Typically, different amounts of each compound are tested ranging from 100 nanoMoles (20 micromolar final concentration) decreasing in half-log steps to 31 picoMoles (6 nanomolar final concentration). Each concentration is typically tested in triplicate.
(§4) 50 microliters of dye-loaded cells are dispensed into each well of the compound assay plate created above. The fluorescence in each well is then determined with an excitation wavelength of 480 nm and an emission wavelength of 540 nm using either a Molecular Devices SpectraMax multimode plate reader or a Hamamatsu FDSS/uCell plate imager.
(§5) The resulting fluorescence for each well is exported as an ascii file and loaded into our LIMS for analysis. The percent activity of each compound at each concentration is determined by comparison to the positive and negative control wells included in each plate.
(§6) EC50 values were calculated using a non-linear regression of Prism. In the table, “A” indicates an EC50 of less than 100 nM, “B” indicates an EC50 range from 100 nM to 500 nM; “C” indicates an EC50 range from 500 nM to 2 μM; and “D” indicates an EC50 greater than 2 μM.

Another assay has as its target T1, Human TRPML2 (Homo sapiens, UniProt Q8IZK6).
T1 construct: expressed in transfected cells
T1 sequence (Q8IZK6 1-566): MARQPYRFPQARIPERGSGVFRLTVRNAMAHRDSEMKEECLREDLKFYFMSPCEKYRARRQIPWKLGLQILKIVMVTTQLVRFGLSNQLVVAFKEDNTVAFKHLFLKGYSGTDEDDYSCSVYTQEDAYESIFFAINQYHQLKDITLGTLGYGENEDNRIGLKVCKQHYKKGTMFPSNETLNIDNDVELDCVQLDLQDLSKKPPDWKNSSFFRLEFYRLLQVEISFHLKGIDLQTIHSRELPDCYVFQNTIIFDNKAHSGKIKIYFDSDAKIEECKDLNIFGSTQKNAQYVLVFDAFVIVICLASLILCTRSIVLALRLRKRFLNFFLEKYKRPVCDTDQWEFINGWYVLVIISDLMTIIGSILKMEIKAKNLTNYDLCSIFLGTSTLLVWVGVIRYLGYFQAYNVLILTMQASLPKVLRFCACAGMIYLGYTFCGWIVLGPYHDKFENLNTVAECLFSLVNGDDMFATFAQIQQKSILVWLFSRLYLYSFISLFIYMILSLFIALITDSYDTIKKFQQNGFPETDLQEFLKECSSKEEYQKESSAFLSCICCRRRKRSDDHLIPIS
The assay can be described thus: Fluorescent TRPML2 assay (as for TRPML1). The following applies: as TRPML1 assay with TRPML2 subtype; read-out: Human TRPML 2 EC50. The method, then:
as §1, §2, §3, §4, §5
(§7) Assays for TRPML2 and TRPML3 were performed as above for TRPML1, by substituting the appropriate TRPML2 or TRPML3 subtype for the TRPML1.
as §6

The target in the next assay is T2, Human TRPML3 (Homo sapiens, UniProt Q8TDD5).
T2 construct: expressed in transfected cells
T2 sequence (Q8TDD5 1-553): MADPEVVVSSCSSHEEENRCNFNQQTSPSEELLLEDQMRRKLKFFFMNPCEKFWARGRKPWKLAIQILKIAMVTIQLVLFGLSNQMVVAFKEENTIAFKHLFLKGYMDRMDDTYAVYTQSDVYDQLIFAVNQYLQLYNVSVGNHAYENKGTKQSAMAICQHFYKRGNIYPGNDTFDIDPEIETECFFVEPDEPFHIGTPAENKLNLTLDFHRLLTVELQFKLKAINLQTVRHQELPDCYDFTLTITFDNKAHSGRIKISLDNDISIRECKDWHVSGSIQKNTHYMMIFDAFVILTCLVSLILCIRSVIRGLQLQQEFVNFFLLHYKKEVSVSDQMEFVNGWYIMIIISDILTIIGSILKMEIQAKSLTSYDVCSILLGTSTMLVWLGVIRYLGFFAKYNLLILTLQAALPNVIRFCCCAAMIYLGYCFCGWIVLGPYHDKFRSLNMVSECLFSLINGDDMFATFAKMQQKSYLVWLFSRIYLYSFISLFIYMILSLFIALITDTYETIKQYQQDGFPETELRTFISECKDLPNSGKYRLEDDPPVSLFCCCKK
The assay can be described thus: Fluorescent TRPML3 assay (as for TRPML1). The following applies: as TRPML1 assay with TRPML3 subtype; read-out: Human TRPML 3 EC50. The procedure: as §1, §2, §3, §4, §5, §7, §6

The term EC50 denotes the concentration at which the effect is half-maximal. As for `C[C@@H]1CN(c2ncnc3c2c(N2CCC2)cn3-c2cc(C#N)ccn2)CCN1C(=O)c1ccccc1` [Compound 101, (R)-2-(5-(azetidin-1-yl)-4-(4-benzoyl-3-methylpiperazin-1-yl)-7H-pyrrolo[2,3-d]pyrimidin-7-yl)isonicotinonitrile], the EC50 on human TRPML1 was less than 0.1 µM; on Human TRPML2, 0.1 to 0.5 µM; on Human TRPML3, less than 0.1 µM.

Turning to `C[C@@H]1CN(c2ncnc3c2c(C2CC2)cn3-c2cc(C#N)ccn2)[C@@H](C)CN1C(=O)c1ccccc1` [Compound 102, 2-(4-((2S,5R)-4-benzoyl-2,5-dimethylpiperazin-1-yl)-5-cyclopropyl-7H-pyrrolo[2,3-d]pyrimidin-7-yl)isonicotinonitrile], the EC50 at human TRPML1 is less than 0.1 µM; on Human TRPML2 it was more than 2 µM; at Human TRPML3, 0.1 to 0.5 µM.

For `C[C@@H]1CN(c2ncnc3c2c(C(F)(F)F)cn3-c2cc(C#N)ccn2)[C@@H](C)CN1C(=O)c1ccccc1` [Compound 103, 2-(4-((2S,5R)-4-benzoyl-2,5-dimethylpiperazin-1-yl)-5-(trifluoromethyl)-7H-pyrrolo[2,3-d]pyrimidin-7-yl)isonicotinonitrile], the EC50 was 0.5 to 2 µM on Human TRPML2 and less than 0.1 µM at Human TRPML3.

For the compound `Cc1cn(-c2cc(C#N)ccn2)c2ncnc(N3C[C@@H](C)N(C(=O)c4ccccc4)C[C@@H]3C)c12` [Compound 104, 2-(4-((2S,5R)-4-benzoyl-2,5-dimethylpiperazin-1-yl)-5-methyl-7H-pyrrolo[2,3-d]pyrimidin-7-yl)isonicotinonitrile], the EC50 on Human TRPML3 lay within 0.1 to 0.5 µM.

With `C[C@@H]1CN(c2ncnc3c2c(C2CC2)cn3-c2cccc(F)c2)[C@@H](C)CN1C(=O)c1ccccc1` [Compound 105, ((2R,5S)-4-(5-cyclopropyl-7-(3-fluorophenyl)-7H-pyrrolo[2,3-d]pyrimidin-4-yl)-2,5-dimethylpiperazin-1-yl)(phenyl)methanone], the EC50 on human TRPML1 is less than 0.1 µM; on Human TRPML2, more than 2 µM; at Human TRPML3, 0.5 to 2 µM.

For `C[C@@H]1CN(c2ncnc3c2c(C(F)(F)F)cn3-c2cccc(F)c2)[C@@H](C)CN1C(=O)c1ccccc1` [Compound 106, ((2R,5S)-4-(7-(3-fluorophenyl)-5-(trifluoromethyl)-7H-pyrrolo[2,3-d]pyrimidin-4-yl)-2,5-dimethylpiperazin-1-yl)(phenyl)methanone], the values for the EC50 at human TRPML1, at Human TRPML2 and on Human TRPML3 were less than 0.1 µM, more than 2 µM and 0.5 to 2 µM, respectively.

Consider `C[C@@H]1CN(c2ncnc3c2c(N2CCC2)cn3-c2cc(C#N)ccn2)[C@@H](C)CN1C(=O)c1ccccc1` [Compound 107, 2-(5-(azetidin-1-yl)-4-((2S,5R)-4-benzoyl-2,5-dimethylpiperazin-1-yl)-7H-pyrrolo[2,3-d]pyrimidin-7-yl)isonicotinonitrile], for which the values for the EC50 at human TRPML1, on Human TRPML2 and at Human TRPML3 were less than 0.1 µM, 0.1 to 0.5 µM and 0.1 to 0.5 µM, respectively.

With `C[C@@H]1CN(c2ncnc3c2c(N2CCC2)cn3-c2cccc(F)c2)[C@@H](C)CN1C(=O)c1ccccc1` [Compound 108, ((2R,5S)-4-(5-(azetidin-1-yl)-7-(3-fluorophenyl)-7H-pyrrolo[2,3-d]pyrimidin-4-yl)-2,5-dimethylpiperazin-1-yl)(phenyl)methanone], the EC50 is less than 0.1 µM on human TRPML1, 0.5 to 2 µM at Human TRPML2 and 0.5 to 2 µM on Human TRPML3.

Take `C[C@@H]1CN(c2ncnc3c2c(-c2ccccc2F)cn3-c2cc(C#N)ccn2)[C@@H](C)CN1C(=O)c1ccccc1` [Compound 109, 2-(4-((2S,5R)-4-benzoyl-2,5-dimethylpiperazin-1-yl)-5-(2-fluorophenyl)-7H-pyrrolo[2,3-d]pyrimidin-7-yl)isonicotinonitrile]: the concentration giving a half-maximal response (EC50) at human TRPML1 was less than 0.1 µM; on Human TRPML2 it was 0.1 to 0.5 µM; on Human TRPML3, less than 0.1 µM.

As to `C[C@@H]1CN(c2ncnc3c2c(C2CCC2)cn3-c2cc(C#N)ccn2)[C@@H](C)CN1C(=O)c1ccccc1` [Compound 110, 2-(4-((2S,5R)-4-benzoyl-2,5-dimethylpiperazin-1-yl)-5-cyclobutyl-7H-pyrrolo[2,3-d]pyrimidin-7-yl)isonicotinonitrile], the EC50 at human TRPML1 is less than 0.1 µM; on Human TRPML2, 0.1 to 0.5 µM; at Human TRPML3, 0.1 to 0.5 µM.

Turning to `C[C@@H]1CN(c2ncnc3c2c(C2CCC2)cn3-c2cccc(F)c2)[C@@H](C)CN1C(=O)c1ccccc1` [Compound 111, ((2R,5S)-4-(5-cyclobutyl-7-(3-fluorophenyl)-7H-pyrrolo[2,3-d]pyrimidin-4-yl)-2,5-dimethylpiperazin-1-yl)(phenyl)methanone], the EC50 at human TRPML1 fell in the range of 0.1 to 0.5 µM; at Human TRPML3 it was 0.5 to 2 µM.

Consider `Cc1ccccc1C(=O)N1C[C@H](C)N(c2ncnc3c2c(N2CCC2)cn3-c2cc(C#N)ccn2)C[C@H]1C` [Compound 112, 2-(5-(azetidin-1-yl)-4-((2S,5R)-2,5-dimethyl-4-(2-methylbenzoyl)piperazin-1-yl)-7H-pyrrolo[2,3-d]pyrimidin-7-yl)isonicotinonitrile], for which the figures for the half-maximal effective concentration (EC50) on human TRPML1, on Human TRPML2 and on Human TRPML3 were 0.1 to 0.5 µM, 0.5 to 2 µM and 0.1 to 0.5 µM, respectively.

For `C[C@@H]1CN(c2ncnc3c2c(C(F)(F)F)cn3-c2cc(C#N)ccn2)CCN1C(=O)c1ccccc1` [Compound 115, (R)-2-(4-(4-benzoyl-3-methylpiperazin-1-yl)-5-(trifluoromethyl)-7H-pyrrolo[2,3-d]pyrimidin-7-yl)isonicotinonitrile], the EC50 on Human TRPML3 is less than 0.1 µM.

Consider `C[C@H]1CN(C(=O)c2ccccc2)CCN1c1ncnc2c1c(C(F)(F)F)cn2-c1cc(C#N)ccn1` [Compound 117, (S)-2-(4-(4-benzoyl-2-methylpiperazin-1-yl)-5-(trifluoromethyl)-7H-pyrrolo[2,3-d]pyrimidin-7-yl)isonicotinonitrile], for which the EC50 on Human TRPML3 lay within 0.5 to 2 µM.

For the compound `C[C@@H]1CN(c2ncnc3c2c(-c2ccccn2)cn3-c2cc(C#N)ccn2)[C@@H](C)CN1C(=O)c1ccccc1` [Compound 118, 2-(4-((2S,5R)-4-benzoyl-2,5-dimethylpiperazin-1-yl)-5-(pyridin-2-yl)-7H-pyrrolo[2,3-d]pyrimidin-7-yl)isonicotinonitrile], the EC50 is 0.1 to 0.5 µM at human TRPML1 and 0.5 to 2 µM at Human TRPML3.
